This is an account of results in US12673918B2, “Small molecule RPN13 inhibitors with antitumor properties” (The Johns Hopkins University, priority 2019, dated 2026).

Read-outs that look alike come from different tables or passages of the source. A value given as a limit tells only on which side of the number the result lay.

Series [1] is described as follows: in vitro. To be noted: human.
Experimental: (§1) Cell lines and cytotoxicity assays: All cell lines were obtained from the American Type Culture Collection (ATCC) and cultured in the specified medium supplemented with 10% fetal bovine serum, 100 IU/mL penicillin, and 100 μg/mL streptomycin at 37° C. in a humidified 5% CO2/95% air incubator. […] To assess drug cytotoxicity, cells were seeded at 2,500 cells/well (10,000 cells/well for MM lines) in 100 μL medium in 96-well plate and after 24 treated with compounds for 72 h, incubated according to the manufacturer's protocol with the Thiazolyl Blue Tetrazolium Bromide (Sigma, M2128) and A570 measured using a Benchmark Plus microplate spectrophotometer (BIO-RAD). IC50 data was analyzed by Graphpad Prism software. In the chirality studies the cells were treated with compounds for 48 h, and the cells were incubated and measured via the preceeding protocols.
Series [2] concerns HeLa. To be noted: human.
Series [3] concerns proteasome (4UbFL reporter). The experiment in a line: 4UbFL reporter, ES2 cells stably expressing 4UbFL. The series is classed as cell-based, human. As to conditions: ES2 stably expressing 4UbFL, 4 h. The source says: FIG. 14B illustrates fold increase in bioluminiscence of ES2 cells stably expressing 4UbFL at 4 hrs post-treatment of compounds, as measured by luminometer.
Next examined was the effect of compounds on proteasome function using a DNA construct that expresses a reporter gene comprising firefly luciferase fused to four molecules of ubiquitin (4UbFL) at its amino terminus (41). The 4UbFL is rapidly degraded by active proteasomes, resulting in a low level of enzymic activity and bioluminescence. Upon proteasome inhibition, increased 4UbFL activity can be measured by luminescence assay using luciferin as a substrate as the protein is stabilized.

Series [4] concerns proteasome (4UbFL reporter). The series can be described thus: 4UbFL reporter in leg muscle of CD1 mice. The series is classed as in vivo. As for the experimental part:
Pilot safety studies were performed in CD1 mice (n=3/dose group of healthy female mice aged 6-8 weeks) with increasing single doses delivered i.p. and the NOAEL (no-observed-adverse-effect level) was selected for further animal studies. […] Bortezomib was dissolved in a minimal amount of DMSO and further diluted with saline before injection in a dose finding study. […] To measure on-target inhibition of proteasome activity in mice, a leg muscle of CD-1 mice was transduced with the 4UbFL reporter construct. […] Briefly, mouse leg muscle was electroporated with 4UbFL plasmid and basal bioluminescence was measured after 24 hr using IVIS200 imager after injecting luciferin substrate. Mice were randomized (n=5/group) and treated with compounds in PEG400: Cremophor: Tween40 combination or vehicle alone as shown in Table 5 with one dose delivered by intraperitoneal injection. The mice were again imaged at 4 h, 24 h, 48 h post treatment.

In series [5] the test system is ROS. The series can be described thus: ROS by Amplex Red, ES2 cells. As to conditions: ES2, 12 hr; listed in order of potency. The series is classed as cell-based, human. The method, then: FIG. 16C illustrates ES2 cells treated for 12 hr with compounds (or as a positive control, H2O2) at the indicated doses, and then reactive oxygen species (i.e. ROS) levels measured by adding Amplex Red and HRP.
Amplex Red Assay to measure ROS: Amplex Red reagent (#A12222, Thermo Scientific) combined with horseradish peroxidase (HRP) was used to detect H2O2. Briefly cells were treated in 96 well plates with corresponding compounds at indicated times. Next 50 μM Amplex® Red reagent plus 1 U/mL HRP in 50 mM sodium phosphate buffer, pH 7.4, were added to cells and incubated for 30 minutes at room temperature. Fluorescence was measured with a fluorescence-based microplate reader using excitation at 530±12.5 nm and detection at 580±25 nm. Background fluorescence of 969 units for Amplex® Red reagent, determined for a no-H2O2 control reaction, was subtracted from each value. H2O2 treatment (1 h) was used as positive control.

Series [6] has as its system FaDu. The experiment in a line: cells. To be noted: Homo sapiens.
The nature of series [7]: Repeat dose MTD in healthy female CD1 mice. As to conditions: mouse, in vivo, 3 repeated doses every third day. The source says:
The starting doses were based on previous studies with RA183. Doses were escalated incrementally in steps of not more than 50%. When either of these endpoints was met, dose escalation was halted and the prior dose was set as the MTD.

Series [8] has as its system RPE1-ATMKO. The series can be described thus: MTT cytotoxicity assay, RPE1-ATMKO. As to conditions: read-out: cytotoxicity IC50 RPE1-ATMKO. (In general: Tetrazolium dyes change colour on reduction, which living cells bring about.)
Experimental: as §1
Series [9] has as its system BR5-Luc. The series can be described thus: MTT cytotoxicity assay, BR5-Luc. As to conditions: read-out: cytotoxicity IC50 BR5-Luc, Tables 3A/4B/4C, BRCA2 − VE.
Series [10] concerns T22. The experiment in a line: MTT cytotoxicity assay, T22. To be noted: read-out: cytotoxicity IC50 T22, Tables 3A/4B/4C, BRCA2 + VE.
In series [11] the test system is UWB1.289. The experiment in a line: MTT cytotoxicity assay, UWB1.289. To be noted: UWB1289, read-out: cytotoxicity IC50 UWB1.289.
Experimental: as §1
Series [12] deals with HFF (Human Foreskin Fibroblast). The series can be described thus: MTT cytotoxicity assay, HFF normal cells. To be noted: read-out: IC50 HFF. The series is classed as cell-based.
Experimental: Cell lines and cytotoxicity assays: All cell lines were obtained from the American Type Culture Collection (ATCC) and cultured in the specified medium supplemented with 10% fetal bovine serum, 100 IU/mL penicillin, and 100 μg/mL streptomycin at 37° C. in a humidified 5% CO2/95% air incubator. […] To assess drug cytotoxicity, cells were seeded at 2,500 cells/well (10,000 cells/well for MM lines) in 100 μL medium in 96-well plate and after 24 treated with compounds for 72 h, incubated according to the manufacturer's protocol with the Thiazolyl Blue Tetrazolium Bromide (Sigma, M2128) and A570 measured using a Benchmark Plus microplate spectrophotometer (BIO-RAD). IC50 data was analyzed by Graphpad Prism software.
A short description of series [13]: MTT cytotoxicity assay, RPE1. To be noted: human.
Experimental: as §1
Series [14] has as its system OVCAR3. The series can be described thus: MTT cytotoxicity assay, OVCAR3.
The test system of series [15] is VU93. The series can be described thus: MTT cytotoxicity assay, VU93. To be noted: read-out: cytotoxicity IC50 VU93, Tables 3A/4B/4C.
Setting [16] is: read-out: cytotoxicity IC50 FaDu.
Where [17] appears, read: Table 3, MTT, 48 hr, normal Human Foreskin Fibroblast.
The mark [18] stands for this setting: read-out: cytotoxicity IC50 OVCAR3, Tables 3A/4B/4C, MTT assay.

As for `C[C@H]1/C(=C\c2ccc([N+](=O)[O-])cc2)C(=O)/C(=C/c2ccc([N+](=O)[O-])cc2)CN1C(=O)[C@@H](N)Cc1ccccc1`, the IC50 was found to be 41 nM in series [1]; 23 nM in series [2]; 78 nM in [6] (setting [16]); 24 nM in series [8]; 5.7 nM in series [9]; 1360 nM in series [10]. Moreover, the IC50 in series [11] worked out at 43.9 nM. Also, in series [3], the 4UbFL bioluminescence result is “increased bioluminescence in a dose dependent manner”. Besides, the “fold increased bioluminescence (4UbFL, leg muscle)” value was 4-6 fold in series [4] (CD1 mice, 30 mg/kg i.p., PEG400: Cremophor: Tween40, at 4 h and 24 h); 14-22 fold in series [4] (mouse, in vivo, ip, 30 mg/kg). Moreover, in [5], the “level of ROS (Amplex Red)” value was “raised the level of ROS in a dose-dependent manner”. Moreover, the MTD in [7] came to 20 mg/kg.
With `CC(C)C[C@H](NC(=O)[C@H](Cc1ccccc1)NC(=O)c1cnccn1)B(O)O` [Bortezomib, bortezomib, reference compound], in series [5], the “level of ROS (Amplex Red)” value was “raised the level of ROS in a dose-dependent manner”. Further, the IC50 in series [12] (setting [17]) is more than 100 nM; in series [13] (RPE1 cells), 3.5 nM; in series [9], 4.1 nM; in series [14] (setting [18]) it was 30 nM.
With `N[C@@H](Cc1ccccc1)C(=O)N1C/C(=C\c2ccc([N+](=O)[O-])cc2)C(=O)/C(=C/c2ccc([N+](=O)[O-])cc2)C1` [RA183, reference compound], the “level of ROS (Amplex Red)” value in [5] is “raised the level of ROS in a dose-dependent manner”. Moreover, the IC50 was more than 1000 nM in series [12] (Homo sapiens, Fibroblast, 48 h); 150 nM in [6] (setting [16]); 78 nM in series [14] (read-out: IC50 OVCAR3, Table 3, MTT, 48 hr, Ovarian); 78 nM in [14] (setting [18]).
Turning to `N[C@@H](Cc1ccccc1)C(=O)N1C/C(=C\c2ccc(Cl)c(Cl)c2)C(=O)/C(=C/c2ccc(Cl)c(Cl)c2)C1` [RA190, reference compound], the IC50 in series [15] was 625 nM; in [12] (setting [17]) it was more than 1000 nM; in series [6] (setting [16]), 300 nM; in series [9], 38 nM; in series [14] (setting [18]), 120 nM; in series [10] it was 16300 nM.
As to `O=C(CCl)N[C@@H](Cc1ccccc1)C(=O)N1C/C(=C\c2ccc([N+](=O)[O-])cc2)C(=O)/C(=C/c2ccc([N+](=O)[O-])cc2)C1` [RA375], the IC50 in series [1] is 41 nM; in series [2], 13 nM; in series [12] (Homo sapiens, Fibroblast, 48 h), more than 1000 nM; in series [6] (48 h, read-out: IC50 FaDu), 142 nM; in series [14] (read-out: IC50 OVCAR3) it was 17 nM.
Turning to `CC1/C(=C\c2ccc([N+](=O)[O-])cc2)C(=O)/C(=C/c2ccc([N+](=O)[O-])cc2)CN1C(=O)[C@H](Cc1ccccc1)NC(=O)CCl` (stereo partly shown) [RA414], the 4UbFL bioluminescence result in series [3] is given as “increased bioluminescence in a dose dependent manner”. In [4] (CD1 mice, 3 mg/kg i.p., PEG system), the “duration of on-target activity (4UbFL, leg muscle)” value is “on-target activity over 72 hr similar to bortezomib”. For the same molecule, the IC50 in series [15] was 40 nM; in [6] (setting [16]) it was 78 nM; in series [8], less than 40 nM; in series [13], less than 40 nM; in series [14] (setting [18]), less than 20 nM; in series [11] it was less than 20 nM. In addition, the “level of ROS (Amplex Red)” value in [5] was “raised the level of ROS in a dose-dependent manner”. For the same molecule, the MTD in [7] was found to be 10 mg/kg.
